According to US8329703B2, “Pyrazole compounds” (XTL Biopharmaceuticals Ltd., priority 2005, dated 2012):
Where “and” joins values, the source holds several entries; their conditions need not be identical. Identical values can stand only once. Like-named read-outs stand apart in the source and are kept apart here.

Columns and labels:
Huh-Luc-Neo cells = test: Cell Titer-Glo Cell Viability Assay; format: cell-based, human; conditions: for Toxicity % Inhibition at 50 μM (2 doses): inhibition of cell viability at 50 μM, conditions identical to HCV Replicon RNA Assay; for Toxicity % Inhibition at 100 μM (1 dose): inhibition of cell viability at 100 μM, conditions identical to HCV Replicon Luciferase Assay (48 h)
Procedure: (§1) Day 2, Reagent Preparation and Luciferase Assay: The Bright-Glo Luciferase Assay Buffer (Promega) is thawed and equilibrated to room temperature prior to use. The lyophilized Bright-Glo Luciferase Assay Substrate is equilibrated to room temperature prior to use. 10 ml of Bright-Glo Luciferase Assay Buffer is transferred to 1 vial of Bright-Glo Luciferase Assay Substrate bottle and mixed by gently with a Vortex. 100 ul of Bright-Glo Luciferase Assay reagent (Bright-Glo Luciferase Assay Buffer+Bright-Glo Luciferase Assay Substrate Mixture) is added to each well. The well contents are mixed for 5 min. on an orbital shaker at room temperature to induce cell lysis and the luminescence is then measured using a luminometer. The data is analyzed and IC50s are determined using GraphPad Prism 4 software. Hits validated in the Replicon Luciferase assay have IC50s<8.0 μM and show <30% inhibition of Cell Viability at a compound concentration of 100 μM (Cell Titer Glow Assay, cell viability assay conditions identical to HCV Replicon Luciferase Assay conditions).
(§2) Day 3, Quantitative PCR Based Measurement of HCV RNA (Taqman Assay): Quantitative PCR analysis to measure HCV RNA expression from cDNA synthesized on Day 2 is performed using the ABI 9700 HT Sequence Detection System (Applied Biosystems) as previously described (Lohman et al, Science 285, 110-113, 1999). The data is analyzed and IC50s are determined using GraphPad Prism 4 software. Hits validated in the Replicon RNA Assay have IC50s<8.0 μM and show <30% inhibition of Cell Viability at a compound concentration of 50 μM (Cell Titer Glow Assay, cell viability assay conditions identical to HCV Replicon RNA Assay conditions).
Day 0, Cell Seeding and Compound Treatment: Huh-Luc-Neo Cells are seeded at 25,000/well in an opaque-walled 96 plate with Growth Medium (DMEM phenol red free+PS+2 mM glutamine; 100 ul/well).
Day 2, Reagent Preparation and Assay: The CellTiter-Glo Buffer is thawed and equilibrated to room temperature prior to use. The lyophilized CellTiter-Glo Substrate is equilibrated to room temperature prior to use. 10 ml of CellTiter-Glo Buffer is transferred to 1 vial of CellTiter-Glo Substrate and mixed by gently with a Vortex. 100 μl of CellTiter-Glo Assay reagent (CellTiter-Glo Buffer+CellTiter-Glo Substrate Mixture) is added to each well. The well contents are mixed for 5 min. on an orbital shaker at room temperature to induce cell lysis and the luminescence is then measured using a luminometer.

[1] = test system: HCV RNA (HCV Replicon) in Huh-Luc-Neo cells; test: HCV Replicon RNA Assay (Taqman quantitative PCR); format: cell-based; conditions: 2 compound treatments over 48 h, no unit printed in table (b307 gives IC50s in μM)
Procedure: (§3) The identification of inhibitors of HCV replication and/or proliferation has been facilitated by the development of a cell based system to study HCV replication and assay for HCV inhibitors. Inhibition of HCV replication may be performed using the HCV Replicon Assay developed in the laboratories of Bartenschlager (Lohman et al, Science 285, 110-113, 1999) and Rice (Blight et al, Science 290, 1972-1974, 2000). The assay is performed using the Huh-Luc-Neo cell line (Lohman et al, Science 285, 110-113, 1999). Huh-Luc-Neo cells are a human hepatoma cell line (Huh-7) stably expressing a bi-cistronic subgenomic replicon containing the HCV IRES in which the […] of HCV had been deleted and replaced by a construct containing sequences coding for the firefly luciferase reporter gene, the neomycin selectable marker and the EMCV IRES to direct expression of a truncated HCV genome expressing the […] NS3, NS4A, NS4B, NS5A, and NS5B. HCV targets through which inhibitors could act to inhibit replication include the NS3 protease, the helicase/ATPase, NS5A, the NS5B-RNA dependent RNA polymerase, and the HCV IRES.
(§4) Expression of HCV IRES driven luciferase reporter activity and HCV RNA is measured to obtain indirect and direct measures of replication of HCV RNA respectively. Inhibitors of HCV replication and/or proliferation are determined by initially identifying molecules that inhibit expression of the HCV IRES driven luciferase reporter in this HCV Replicon Luciferase Assay. Cell viability assays and control cell based luciferase assays are then run on hits identified in the HCV Replicon Luciferase Assay to eliminate cytoxic compounds and non-specific compounds which act by inhibiting the luciferase enzyme.
(§5) Day 0, Cell Seeding and Compound Treatment: Huh-Luc-Neo Cells are seeded at 25,000/well in an opaque-walled 96 plate with Growth Medium (DMEM phenol red free+PS+2 mM glutamine; 100 μl/well). The compounds to be tested are added to the experimental wells (10 μl/well at 10× assay concentration) and the cells are then incubated (5% CO2, 37° C.).
Day 1, Media Change and Compound Treatment: 24 hours after the initial compound treatment the cell culture media is aspirated from the wells and fresh Growth Medium is added (DMEM phenol red free+PS+2 mM glutamine; 100 μl/well). The compounds to be tested are then added to the appropriate experimental wells (10 μl/well at 10× assay concentration) and the cells are then incubated (5% CO2, 37° C.) for an additional 24 hrs.
Day 2, RNA Isolation and cDNA Synthesis: The cells are washed with 1× Phosphate Buffered Saline (PBS) once.
as §2

[2] = test system: HCV Replicon (HCV IRES driven luciferase reporter) in Huh-Luc-Neo cells; test: HCV Replicon Luciferase Assay; format: cell-based; conditions: 48 h, Huh-Luc-Neo cells, no unit printed in table (b301 gives IC50s in μM), read-out: Luciferase IC50
Procedure: as §3, §4
as §5, with “C.) for 48 h.” for “C.).”
as §1

| Structure (SMILES) | Toxicity % Inhibition at 50 μM (2 doses) (Huh-Luc-Neo cells) [%] | Toxicity % Inhibition at 100 μM (1 dose) (Huh-Luc-Neo cells) | IC50 ([1]; Hepatitis C virus, 48 h) [µM] | IC50 ([2]; Hepatitis C virus) [µM] | IC50 [1] [µM] | IC50 [2] [µM] |
| --- | --- | --- | --- | --- | --- | --- |
| Cc1ccc(O)c(-c2nn(C)cc2C#CC2=CCCCC2)c1 [VQ_23307] | 14.8 | 44.8% | 8.1 | 7.25 | – | – |
| Cc1ccc(O)c(-c2nn(C)cc2C#CC(C)(C)C)c1 [VQ_23310] | 7.1 | 33.3% | 1.15 | 7.21 | – | – |
| COc1ccc(C#Cc2cn(C)nc2-c2cc(Cl)ccc2O)cc1 [VQ_23317] | 2.1 | 10.7% | 2.7 | 4.37 | – | – |
| Cn1cc(C#CC(C)(C)C)c(-c2cc(Cl)ccc2O)n1 [VQ_23322] | 1.5 | 21.5% | 2.47 | 2 | – | – |
| CCCCCC#Cc1cn(C)nc1-c1cc(Cl)ccc1O [VQ_23324] | 8.8 | 39.8% | 0.03 | 5.51 | – | – |
| COc1ccc(C#Cc2cn(C)nc2-c2cc(Cl)c(C)cc2O)cc1 [VQ_23374] | 13.0 | 19.1% | 5.7 | 3.92 | – | – |
| COCC#Cc1cn(C)nc1-c1cc(Cl)c(C)cc1O [VQ_23382] | – | 18.5% and 16.2% | 3.03 | – | 2.26 | – |
| Cn1cc(C#CCC2CCCCC2)c(-c2ccccc2O)n1 [VQ_23705] | 14.7 | 26.4% | 1.1 | 6.47 | – | – |
| Cn1cc(C#Cc2ccc(N)cc2)c(-c2ccccc2O)n1 [VQ_23708] | 21.8 | 63.8% | 0.7 | 0.55 | – | – |
| CCCCCCNc1ccc([N+](=O)[O-])cc1-c1nn(C)cc1C#CC(C)(C)C [VQ_36663] | 23.8 | 15.5% | 0.75 | – | – | – |
| COc1ccc(S(=O)(=O)Nc2ccc([N+](=O)[O-])cc2-c2nn(C)cc2C#CC(C)(C)C)cc1 [VQ_36877] | – | 10.9% | – | 0.2 | – | – |
| Cn1cc(C#CC(C)(C)C)c(-c2cc([N+](=O)[O-])ccc2NCc2ccccc2C#N)n1 [VQ_36885] | – | 35.7% | – | 0.03 | – | – |
| Cn1cc(C#CC(C)(C)C)c(-c2cc([N+](=O)[O-])ccc2NCc2c(Cl)cccc2Cl)n1 [VQ_36886] | – | 12.6% | – | 0.19 | – | – |
| Cn1cc(C#CC(C)(C)C)c(-c2cc([N+](=O)[O-])ccc2NCc2c(F)c(F)cc(F)c2F)n1 [VQ_36887] | – | 18.7% | – | 0.06 | – | – |
| Cn1cc(C#CC(C)(C)C)c(-c2cc([N+](=O)[O-])ccc2NCc2ccc(I)cc2)n1 [VQ_36893] | – | 16.6% | – | 0.09 | – | – |
| Cn1cc(C#CC(C)(C)C)c(-c2cc([N+](=O)[O-])ccc2NCc2c(F)c(F)c(F)c(F)c2F)n1 [VQ_36894] | – | 12.5% | – | 0.12 | – | – |
| Cn1cc(C#CC(C)(C)C)c(-c2cc([N+](=O)[O-])ccc2NCc2cccc3ccccc23)n1 [VQ_36895] | – | 10.4% | – | 0.1 | – | – |
| Cn1cc(C#CC(C)(C)C)c(-c2cc([N+](=O)[O-])ccc2NC(=O)c2cc(C(F)(F)F)ccc2F)n1 [VQ_36905] | – | 10.9% | – | 1.63 | – | – |
| Cn1cc(C#CC(C)(C)C)c(-c2cc([N+](=O)[O-])ccc2NC(=O)c2ccccc2C(F)(F)F)n1 [VQ_36906] | – | 14.0% | – | 2.69 | – | – |
| Cn1cc(C#CC(C)(C)C)c(-c2cc([N+](=O)[O-])ccc2NC(=O)COc2ccccc2)n1 [VQ_36907] | – | 34.7% | – | – | – | 0.2 |
| Cn1cc(C#CC(C)(C)C)c(-c2cc([N+](=O)[O-])ccc2NC(=O)COc2ccccc2)n1 [VQ_36908] | – | 22.7% | – | – | – | 1.72 |
